{"source": "patent US7414110B2", "about": "“Human calcium channel compositions and methods” (Merck & Co., Inc., priority 1990, dated 2008)", "key": {"[1]": {"molecular_target": "T1, α1B-2β1-2 (Homo sapiens, UniProt Q00975, L2215R/Y99N)", "T1 construct": "Full-length DNA clones and corresponding RNA transcripts, encoding α1, including splice variants of α1A, α1D, α1B; expressed in transfected cells; host or cells: HEK293 cells, transient", "type": "binding"}, "[2]": {"molecular_target": "T2, α1B-2α2bβ1-3 (Homo sapiens, UniProt Q00975, L2215R/Y99N)", "T2 construct": "Full-length DNA clones and corresponding RNA transcripts, encoding α1, including splice variants of α1A, α1D, α1B; expressed in transfected cells; host or cells: HEK293 cells, transient", "type": "binding"}, "[3]": {"molecular_target": "T3, α1B-1 (Homo sapiens, UniProt Q00975, Y99N)", "T3 construct": "contains, in pcDNA1, a full-length coding region encoding α1B-1; expressed in transfected cells; host or cells: HEK293 cells, transient", "T3 sequence (Q00975 whole entry Y99N)": "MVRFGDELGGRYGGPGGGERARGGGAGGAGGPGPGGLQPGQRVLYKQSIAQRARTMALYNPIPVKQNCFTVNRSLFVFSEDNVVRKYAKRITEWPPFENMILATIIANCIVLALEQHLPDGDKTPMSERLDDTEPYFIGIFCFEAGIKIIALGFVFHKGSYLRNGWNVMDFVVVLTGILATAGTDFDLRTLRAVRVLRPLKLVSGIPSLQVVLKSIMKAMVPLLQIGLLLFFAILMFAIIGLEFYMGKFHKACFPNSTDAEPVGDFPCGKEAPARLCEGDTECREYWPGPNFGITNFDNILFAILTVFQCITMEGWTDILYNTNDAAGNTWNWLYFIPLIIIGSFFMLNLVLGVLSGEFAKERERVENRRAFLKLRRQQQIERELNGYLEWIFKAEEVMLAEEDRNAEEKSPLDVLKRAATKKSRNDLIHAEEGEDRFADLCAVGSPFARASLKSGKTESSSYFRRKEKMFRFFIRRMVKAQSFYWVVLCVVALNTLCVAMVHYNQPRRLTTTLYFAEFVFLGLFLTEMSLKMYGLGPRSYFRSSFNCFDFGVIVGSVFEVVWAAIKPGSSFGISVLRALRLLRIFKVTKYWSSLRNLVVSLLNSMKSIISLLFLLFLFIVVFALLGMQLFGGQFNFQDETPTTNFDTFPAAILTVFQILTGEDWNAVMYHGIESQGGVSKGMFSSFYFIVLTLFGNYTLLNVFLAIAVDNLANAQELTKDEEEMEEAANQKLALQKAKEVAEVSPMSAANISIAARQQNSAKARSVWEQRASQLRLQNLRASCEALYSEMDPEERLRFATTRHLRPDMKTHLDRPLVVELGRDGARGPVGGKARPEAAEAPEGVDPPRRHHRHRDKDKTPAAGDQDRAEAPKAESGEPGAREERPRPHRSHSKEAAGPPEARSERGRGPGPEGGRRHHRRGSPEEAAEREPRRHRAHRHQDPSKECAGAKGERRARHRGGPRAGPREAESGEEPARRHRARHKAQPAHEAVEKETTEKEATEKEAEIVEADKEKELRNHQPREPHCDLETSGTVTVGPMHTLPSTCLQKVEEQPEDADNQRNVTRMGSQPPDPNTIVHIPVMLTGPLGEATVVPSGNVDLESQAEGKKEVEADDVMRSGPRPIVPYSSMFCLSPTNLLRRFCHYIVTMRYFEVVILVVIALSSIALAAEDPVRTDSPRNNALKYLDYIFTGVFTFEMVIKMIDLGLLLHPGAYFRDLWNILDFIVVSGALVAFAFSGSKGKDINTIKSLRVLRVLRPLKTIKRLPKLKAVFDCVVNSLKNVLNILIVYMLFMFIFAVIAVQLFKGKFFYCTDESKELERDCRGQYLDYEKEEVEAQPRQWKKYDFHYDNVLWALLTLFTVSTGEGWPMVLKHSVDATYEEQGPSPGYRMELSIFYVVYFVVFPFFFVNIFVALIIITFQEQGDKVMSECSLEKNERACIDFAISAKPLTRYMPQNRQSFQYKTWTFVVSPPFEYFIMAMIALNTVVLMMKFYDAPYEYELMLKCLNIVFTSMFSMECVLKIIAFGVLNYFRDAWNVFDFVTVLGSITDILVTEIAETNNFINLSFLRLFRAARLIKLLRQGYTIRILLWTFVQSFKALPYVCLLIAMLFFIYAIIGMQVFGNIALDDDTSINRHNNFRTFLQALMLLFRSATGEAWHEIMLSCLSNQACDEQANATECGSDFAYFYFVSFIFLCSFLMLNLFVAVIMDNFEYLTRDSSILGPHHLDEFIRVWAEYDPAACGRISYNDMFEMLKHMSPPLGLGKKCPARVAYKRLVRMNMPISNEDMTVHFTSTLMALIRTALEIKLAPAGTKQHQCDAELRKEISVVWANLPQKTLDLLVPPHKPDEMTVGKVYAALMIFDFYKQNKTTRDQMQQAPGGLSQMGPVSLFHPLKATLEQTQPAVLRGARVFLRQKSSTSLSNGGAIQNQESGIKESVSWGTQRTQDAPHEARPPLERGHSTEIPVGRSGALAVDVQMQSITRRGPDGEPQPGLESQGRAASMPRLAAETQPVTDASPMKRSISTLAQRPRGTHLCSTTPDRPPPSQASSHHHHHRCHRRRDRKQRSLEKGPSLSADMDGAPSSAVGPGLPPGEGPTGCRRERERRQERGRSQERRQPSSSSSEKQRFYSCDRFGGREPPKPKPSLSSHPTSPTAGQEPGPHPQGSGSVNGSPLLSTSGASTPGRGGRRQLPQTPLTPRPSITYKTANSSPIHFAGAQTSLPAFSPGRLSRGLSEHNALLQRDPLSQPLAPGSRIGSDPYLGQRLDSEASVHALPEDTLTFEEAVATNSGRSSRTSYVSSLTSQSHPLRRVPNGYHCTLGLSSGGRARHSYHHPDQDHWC", "type": "binding"}, "[4]": {"molecular_target": "T4, α1B-2 (Homo sapiens, UniProt Q00975, L2215R/Y99N)", "T4 construct": "Full-length DNA clones and corresponding RNA transcripts, encoding α1, including splice variants of α1A, α1D, α1B; expressed in transfected cells; host or cells: HEK293 cells, transient", "type": "binding"}, "[5]": {"molecular_target": "T5, α1B-2α2b (Homo sapiens, UniProt Q00975, L2215R/Y99N)", "T5 construct": "Full-length DNA clones and corresponding RNA transcripts, encoding α1, including splice variants of α1A, α1D, α1B; expressed in transfected cells; host or cells: HEK293 cells, transient", "type": "binding"}, "[6]": {"molecular_target": "T6, α1B-2β1-3 (Homo sapiens, UniProt Q00975, L2215R/Y99N)", "T6 construct": "Full-length DNA clones and corresponding RNA transcripts, encoding α1, including splice variants of α1A, α1D, α1B; expressed in transfected cells; host or cells: HEK293 cells, transient", "type": "binding"}, "[7]": {"molecular_target": "T7, α1B-1α2b (Homo sapiens, UniProt Q00975, Y99N)", "T7 construct": "contains, in pcDNA1, a full-length coding region encoding α1B-1; expressed in transfected cells; host or cells: HEK293 cells, transient", "type": "binding"}, "[8]": {"molecular_target": "T8, α1B-1α2bβ1-3 (Homo sapiens, UniProt Q00975, Y99N)", "T8 construct": "contains, in pcDNA1, a full-length coding region encoding α1B-1; expressed in transfected cells; host or cells: HEK293 cells, transient", "type": "binding"}, "[9]": {"molecular_target": "T9, α1B-1β1-2 (Homo sapiens, UniProt Q00975, Y99N)", "T9 construct": "contains, in pcDNA1, a full-length coding region encoding α1B-1; expressed in transfected cells; host or cells: HEK293 cells, transient", "type": "binding"}, "[10]": {"molecular_target": "T10, α1B-1α2bβ1-2 (Homo sapiens, UniProt Q00975, Y99N)", "T10 construct": "contains, in pcDNA1, a full-length coding region encoding α1B-1; expressed in transfected cells; host or cells: HEK293 cells, transient", "type": "binding"}, "[11]": {"molecular_target": "T11, α1B-2α2bβ1-2 (Homo sapiens, UniProt Q00975, L2215R/Y99N)", "T11 construct": "Full-length DNA clones and corresponding RNA transcripts, encoding α1, including splice variants of α1A, α1D, α1B; expressed in transfected cells; host or cells: HEK293 cells, transient", "type": "binding"}, "[12]": {"molecular_target": "T12, α1B-1β1-3 (Homo sapiens, UniProt Q00975, Y99N)", "T12 construct": "contains, in pcDNA1, a full-length coding region encoding α1B-1; expressed in transfected cells; host or cells: HEK293 cells, transient", "type": "binding"}, "[13]": {"system": "subunit combinations lacking either the α1B-1 or the α1B-2 subunit"}, "[14]": {"molecular_target": "T10, α1B-1α2bβ1-2", "type": "cell-based"}, "[15]": {"system": "untransfected HEK 293 cells", "assay": "whole-cell patch clamp, untransfected HEK 293 cells", "type": "cell-based, human", "conditions": "with or without cAMP or forskolin"}, "[16]": {"system": "human neuronal calcium channel α2 and β1 subunits", "assay": "two-electrode voltage clamp, oöcytes injected with α2 and β1 transcripts", "conditions": "n=11"}, "[17]": {"molecular_target": "human neuronal calcium channel α1D and α2 subunits (Homo sapiens, UniProt Q01668, S1346F/Y1433H)", "assay": "two-electrode voltage clamp, oöcytes injected with α1D and α2 transcripts", "conditions": "15-30 nA currents; holding potential −90 mV"}, "[18]": {"molecular_target": "human neuronal calcium channel α1D and β1 subunits (Homo sapiens, UniProt Q01668, S1346F/Y1433H)", "assay": "two-electrode voltage clamp, oöcytes injected with α1D and β1 transcripts", "conditions": "two of four oöcytes; compared with α1D, α2, β1 oöcytes"}, "[19]": {"system": "untransfected HEK293 cells"}, "[20]": {"system": "cells transfected with only β-galactosidase-encoding DNA or α2bβ-encoding DNA"}, "[21]": {"molecular_target": "T13, α1B-1, α2b and β1-2 subunits (Homo sapiens, UniProt Q00975, Y99N)", "T13 construct": "contains, in pcDNA1, a full-length coding region encoding α1B-1; expressed in transfected cells; host or cells: HEK293 cells, transient", "T13 sequence (Q00975 whole entry Y99N)": "as above", "type": "binding"}, "[22]": {"system": "calcium channels containing α1E subunits", "sequence (Q15878 1-747 limits assumed)": "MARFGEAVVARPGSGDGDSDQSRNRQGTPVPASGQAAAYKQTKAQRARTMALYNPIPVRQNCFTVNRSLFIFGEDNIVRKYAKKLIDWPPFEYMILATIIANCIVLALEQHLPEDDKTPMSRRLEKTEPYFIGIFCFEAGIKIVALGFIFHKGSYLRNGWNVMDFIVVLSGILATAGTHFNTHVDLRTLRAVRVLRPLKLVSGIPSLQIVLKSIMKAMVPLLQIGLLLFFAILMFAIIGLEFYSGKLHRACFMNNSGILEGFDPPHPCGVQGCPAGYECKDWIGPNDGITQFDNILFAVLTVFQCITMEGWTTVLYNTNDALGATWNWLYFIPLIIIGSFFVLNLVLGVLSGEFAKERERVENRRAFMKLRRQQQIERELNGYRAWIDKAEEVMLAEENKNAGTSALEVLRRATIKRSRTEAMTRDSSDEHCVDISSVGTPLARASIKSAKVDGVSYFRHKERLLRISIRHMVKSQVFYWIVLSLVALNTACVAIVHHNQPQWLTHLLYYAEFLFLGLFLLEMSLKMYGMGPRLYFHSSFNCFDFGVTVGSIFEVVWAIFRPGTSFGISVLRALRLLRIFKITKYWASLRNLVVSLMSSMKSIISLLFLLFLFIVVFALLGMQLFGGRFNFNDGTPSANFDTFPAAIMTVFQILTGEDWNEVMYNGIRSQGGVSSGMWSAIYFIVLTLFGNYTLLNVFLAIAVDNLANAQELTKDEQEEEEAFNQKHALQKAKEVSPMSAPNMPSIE", "sequence (Q15878 748-2251 isoform Q15878-2 limits assumed)": "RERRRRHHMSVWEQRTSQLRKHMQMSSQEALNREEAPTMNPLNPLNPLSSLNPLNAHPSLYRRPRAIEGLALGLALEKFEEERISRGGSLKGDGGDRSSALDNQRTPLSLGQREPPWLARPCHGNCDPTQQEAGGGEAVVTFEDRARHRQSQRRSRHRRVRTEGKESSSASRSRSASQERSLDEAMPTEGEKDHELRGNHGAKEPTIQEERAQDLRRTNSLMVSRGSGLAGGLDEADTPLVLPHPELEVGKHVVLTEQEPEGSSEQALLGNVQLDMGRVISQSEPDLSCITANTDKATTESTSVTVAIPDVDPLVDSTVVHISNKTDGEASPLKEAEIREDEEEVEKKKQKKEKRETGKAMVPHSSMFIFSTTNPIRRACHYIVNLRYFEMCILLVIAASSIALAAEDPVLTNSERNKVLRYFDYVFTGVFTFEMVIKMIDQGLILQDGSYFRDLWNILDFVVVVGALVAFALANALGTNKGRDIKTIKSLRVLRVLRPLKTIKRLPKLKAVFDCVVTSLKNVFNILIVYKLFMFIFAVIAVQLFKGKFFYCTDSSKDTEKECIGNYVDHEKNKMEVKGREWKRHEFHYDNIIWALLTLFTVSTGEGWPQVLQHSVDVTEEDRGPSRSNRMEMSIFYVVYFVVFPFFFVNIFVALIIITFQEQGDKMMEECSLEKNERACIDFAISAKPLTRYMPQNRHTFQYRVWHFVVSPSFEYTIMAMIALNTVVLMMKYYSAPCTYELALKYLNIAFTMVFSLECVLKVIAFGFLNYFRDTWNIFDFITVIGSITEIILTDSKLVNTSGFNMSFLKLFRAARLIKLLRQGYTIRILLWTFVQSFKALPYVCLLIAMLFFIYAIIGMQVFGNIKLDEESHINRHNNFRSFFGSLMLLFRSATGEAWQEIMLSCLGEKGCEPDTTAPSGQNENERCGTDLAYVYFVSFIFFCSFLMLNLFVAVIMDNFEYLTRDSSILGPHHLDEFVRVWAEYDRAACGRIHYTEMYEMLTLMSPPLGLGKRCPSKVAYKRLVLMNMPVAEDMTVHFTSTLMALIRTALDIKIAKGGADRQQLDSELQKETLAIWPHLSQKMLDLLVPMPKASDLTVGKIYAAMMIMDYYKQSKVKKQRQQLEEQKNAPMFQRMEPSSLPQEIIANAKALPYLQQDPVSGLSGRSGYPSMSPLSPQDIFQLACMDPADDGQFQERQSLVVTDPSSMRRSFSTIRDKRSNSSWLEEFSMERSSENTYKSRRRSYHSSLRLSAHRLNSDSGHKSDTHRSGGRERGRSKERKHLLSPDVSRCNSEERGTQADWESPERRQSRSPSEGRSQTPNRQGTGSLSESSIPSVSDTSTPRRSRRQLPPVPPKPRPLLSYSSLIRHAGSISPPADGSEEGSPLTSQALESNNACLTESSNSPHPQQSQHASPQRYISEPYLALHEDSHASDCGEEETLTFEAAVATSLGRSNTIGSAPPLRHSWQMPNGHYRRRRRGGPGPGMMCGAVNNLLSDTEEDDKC", "type": "cell-based, human"}}}
{"compound": "C[C@@H](O)[C@@H]1NC(=O)[C@H](Cc2ccc(O)cc2)NC(=O)[C@@H]2C[C@@H](O)CN2C(=O)[C@H](CC(N)=O)NC(=O)[C@@H]2CSSC[C@@H]3NC(=O)[C@H](CO)NC(=O)[C@H](CO)NC(=O)CNC(=O)[C@@H]4C[C@@H](O)CN4C(=O)[C@H](CO)NC(=O)[C@H](CCCCN)NC(=O)[C@@H](N)CSSC[C@H](NC(=O)[C@H](CSSC[C@@H](C(=O)N[C@@H](Cc4ccc(O)cc4)C(N)=O)NC(=O)[C@H](CCCNC(=N)N)NC(=O)[C@H](CCCCN)NC1=O)NC(=O)[C@H](CC(N)=O)NC(=O)[C@H](Cc1ccc(O)cc1)NC(=O)[C@H](CO)NC(=O)[C@H]([C@@H](C)O)NC(=O)[C@@H]1C[C@@H](O)CN1C(=O)[C@H](CO)NC3=O)C(=O)N[C@@H](CCCNC(=N)N)C(=O)N[C@@H](CO)C(=O)N2", "note": "[125I-ω-CgTx GVIA]", "values": [{"measurement": "Bmax (sites/cell)", "setting": "[1]", "result": "2,126 ± 412 sites/cell"}, {"measurement": "Bmax (sites/cell)", "setting": "[2]", "result": "37,652 ± 8,129 sites/cell"}, {"measurement": "Bmax (sites/cell)", "setting": "[3]", "result": "757 ± 128", "unit": "sites/cell"}, {"measurement": "number of binding sites", "setting": "[3]", "result": "approximately 750 binding sites/cell"}, {"measurement": "Kd (pM)", "setting": "[4]", "result": "too low for reliable Scatchard analysis"}, {"measurement": "Kd (pM)", "setting": "[5]", "result": "too low for reliable Scatchard analysis"}, {"measurement": "Bmax (sites/cell)", "setting": "[6]", "result": "2,944 ± 1,168 sites/cell"}, {"measurement": "Bmax (sites/cell)", "setting": "[7]", "result": "2,256 ± 356 sites/cell"}, {"measurement": "Bmax (sites/cell)", "setting": "[8]", "result": "91,004 ± 37,654 sites/cell"}, {"measurement": "Bmax (sites/cell)", "setting": "[9]", "result": "5,756 ± 2,163 sites/cell"}, {"measurement": "Bmax (sites/cell)", "setting": "[10]", "result": "45,324 ± 15,606 sites/cell"}, {"measurement": "Bmax (sites/cell)", "setting": "[11]", "result": "19,371 ± 3,798 sites/cell"}, {"measurement": "Bmax (sites/cell)", "setting": "[12]", "result": "8,729 ± 2,980 sites/cell"}, {"measurement": "detectable 125I-ω-CgTx GVIA binding", "setting": "[13]", "result": "≤ 600", "unit": "sites/cell"}]}
{"compound": "COC(=O)C1=C(C)NC(C)=C([N+](=O)[O-])C1c1ccccc1C(F)(F)F", "note": "(stereo not drawn) [Bay K 8644]", "values": [{"measurement": "effect on IBa", "setting": "[14]; n=4", "result": "no discernable effect"}, {"measurement": "effects of Bay K 8644 on currents", "setting": "[15]", "result": "No such effects"}, {"measurement": "sensitivity of inward barium currents to Bay K 8644", "setting": "[16]", "result": "insensitive"}, {"measurement": "response of barium currents to Bay K 8644", "setting": "[17]", "result": "little or no response"}, {"measurement": "sensitivity of Ba2+ currents to Bay K 8644", "setting": "[18]", "result": "similar"}]}
{"compound": "C[C@@H](O)[C@@H]1NC(=O)[C@H](Cc2ccc(O)cc2)NC(=O)[C@@H]2C[C@@H](O)CN2C(=O)[C@H](CC(N)=O)NC(=O)[C@@H]2CSSC[C@@H]3NC(=O)[C@H](CO)NC(=O)[C@H](CO)NC(=O)CNC(=O)[C@@H]4C[C@@H](O)CN4C(=O)[C@H](CO)NC(=O)[C@H](CCCCN)NC(=O)[C@@H](N)CSSC[C@H](NC(=O)[C@H](CSSC[C@@H](C(=O)N[C@@H](Cc4ccc(O)cc4)C(N)=O)NC(=O)[C@H](CCCNC(=N)N)NC(=O)[C@H](CCCCN)NC1=O)NC(=O)[C@H](CC(N)=O)NC(=O)[C@H](Cc1ccc(O)cc1)NC(=O)[C@H](CO)NC(=O)[C@H]([C@@H](C)O)NC(=O)[C@@H]1C[C@@H](O)CN1C(=O)[C@H](CO)NC3=O)C(=O)N[C@@H](CCCNC(=N)N)C(=O)N[C@@H](CO)C(=O)N2", "note": "[ωCgTX]", "values": [{"measurement": "block of activity", "setting": "[14]", "result": "blocked the activity completely"}, {"measurement": "block of channels", "setting": "[14]", "result": "blocked irreversibly"}, {"measurement": "time to complete block", "setting": "[14]", "result": "≤ 2", "unit": "min"}, {"measurement": "detectable ω-CgTx GVIA binding sites", "setting": "[19]", "result": "do not express detectable"}, {"measurement": "specific binding", "setting": "[20]", "result": "no specific binding"}, {"measurement": "binding capacity (Bmax)", "setting": "[21]", "result": "28,710±11,950 sites per cell"}]}
{"compound": "[Cd]", "note": "[cadmium]", "values": [{"measurement": "blockage of IBa", "setting": "[14]; 50 μM", "result": "rapid, complete, and reversible"}]}
{"compound": "ω-Aga-IVA: funnel web spider toxin that blocks certain high voltage activated channels (KKKCIAKDYGRCKWGGTPCCRGRGCICSIMGTNCECKPRLIMEGLGLA)", "values": [{"measurement": "sensitivity of channels containing α1E subunits", "setting": "[22]", "result": "sensitive"}]}
